41 molecules from the OPERA property sets (Mansouri et al. 2018) can be followed below.

What is called logP is a log measure of how a compound divides between an organic and an aqueous phase. For `COC(=O)Nc1cccc(C#N)c1`, the logP was found to be 1.77.

In turn, `COC(=O)Nc1cccc(C(C)=O)c1` yielded a logP of 1.63. To `COC(=O)Nc1ccc(F)cc1` belongs 1.95. With `CCOc1ccc(NC(=O)OC(CBr)CBr)cc1OCC`, the logP is 3.5. For `COC(=O)Nc1ccccc1` the value was 1.75; for `COC(=O)Nc1ccccc1Br`, 2.3; for `CCc1cccc(NC(=O)OC)c1`, 2.74. For `C#CCOC(=O)Nc1ccc(OCC)c(OCC)c1` the value was 2.68. `CCOc1ccccc1NC(=O)OC` registered a logP of 2.43. To `COC(=O)Nc1cccc(C)c1` belongs 2.29. To `COC(=O)Nc1ccc(OC)cc1` belongs 1.73. Turning to `CCOc1ccc(NC(=O)OCCOC)cc1OCC`, the logP is 2.27. As to `CCCCOC(=O)Nc1ccc(OCC)c(OCC)c1`, the logP stood at 3.46. To `CCc1ccc(NC(=O)OC)cc1` belongs 2.72; to `C=CCOC(=O)Nc1ccc(OCC)c(OCC)c1`, 2.75; to `COC(=O)Nc1ccccc1OC`, 1.84. To `CCOc1ccc(NC(=O)OCC(C)C)cc1OCC` belongs 3.36; to `COC(=O)Nc1ccc(C)cc1`, 2.29; to `CCOc1ccc(NC(=O)OCc2ccccc2)cc1OCC`, 3.29.

Molecule `CCCOC(=O)Nc1ccc(OCC)c(OCC)c1` came in with a logP of 2.93. For `COC(=O)Nc1ccccc1I` the value was 2.44. In turn, `COC(=O)Nc1ccccc1C(F)(F)F` yielded a logP of 2.09. For `COC(=O)Nc1cccc(I)c1` the value was 3.03; for `COC(=O)Nc1cccc([N+](=O)[O-])c1`, 2. `CCOc1cccc(NC(=O)OC)c1` returned a logP of 2.31.

Regarding `CCOc1ccc(NC(=O)OCCC#N)cc1OCC`, the logP stood at 2.07. For `COC(=O)Nc1cccc(OC)c1` the value was 1.92; for `CCOc1ccc(NC(=O)OC(C)C)cc1OCC`, 2.91; for `COC(=O)Nc1ccccc1[N+](=O)[O-]`, 2.1. To `COC(=O)Nc1ccccc1F` belongs 1.66; to `CCOC(=O)Nc1ccc(OCC)c(OCC)c1`, 2.54. To `COC(=O)Nc1ccccc1C` belongs 1.69; to `COC(=O)Nc1ccc([N+](=O)[O-])cc1`, 2.12; to `CCOc1ccc(NC(=O)OC)cc1`, 2.15. On to `CCCCc1ccc(NC(=O)OC)cc1`, for which the logP was 3.69. For `COC(=O)Nc1cccc(C(F)(F)F)c1` the value was 2.74. For `COC(=O)Nc1cccc(Br)c1` the value was 2.75.

Consider `COC(=O)Nc1ccc(C#N)cc1`, for which the logP is 1.82.

With `COC(=O)Nc1ccc(Cl)cc1`, the logP turned out to be 2.55. For `COC(=O)Nc1ccccc1Cl` the value was 2.16; for `CCOc1ccc(NC(=O)OC)cc1OCC`, 2.1.
